Experimental data taken from patent publication US20030055072A1, “Methods of inhibiting Pin1-associated states using a fredericamycin a compound” (priority 2000, published 2003).
Read-outs that look alike come from different tables or passages of the source.

Tests used:
[1] = system: DU-145 prostate tumor; assay: tumor growth in scid mouse human prostate tumor model; format: in vivo, scid mice
[2] = molecular target: T1, hCyp18 (Homo sapiens, UniProt P62937); assay: protease-coupled PPIase assay, hCyp18; format: biochemical
T1 construct: purchased Sigma
T1 sequence (P62937 whole entry): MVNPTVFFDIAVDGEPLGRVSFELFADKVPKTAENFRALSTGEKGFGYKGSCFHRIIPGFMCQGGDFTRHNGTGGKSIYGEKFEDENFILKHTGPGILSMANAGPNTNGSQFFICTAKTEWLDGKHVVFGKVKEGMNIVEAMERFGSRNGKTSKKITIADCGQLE
Method: (§1) PPIase activity measurements were performed by the protease-coupled PPIase assay developed by Fischer et al. (1984). For hPin1 activity measurements, bovine trypsin (final concentration 0.21 mg/mL, Sigma) was used as an isomer-specific protease and Ac-Ala-Ala-Ser(P)-Pro-Arg-pNA (Jerini, Germany) as a substrate. PPIase activity of hFKBP12 (Sigma) and hCyp18 (Sigma) was determined with the peptide substrate Suc-Ala-Phe-Pro-Phe-pNA (Bachem) and the protease α-chymotrypsin (final concentration 0.41 mg/mL, Sigma). The test was performed by observing the released 4-nitroanilide at 390 nm with a Hewlett-Packard 8453 UV-vis spectrophotometer at 10° C. The total reaction volume was adjusted to 1.23 mL by mixing appropriate volumes of 35 mM HEPES (pH 7.8) with enzyme and effector solutions. […] The pseudo-first-order rate constant kobs for cis/trans isomerization in the presence of PPlase and the first-order rate constant k0 of the unkatalyzed cis/trans isomerization were calculated using the Kinetics Software of Hewlett-Packard as well as SigmaPlot2000 for Windows 6.0 (SPSS). The Ki value for inhibition of hPin1 PPIase activity by fredericamycin A at constant concentrations of substrate ([S0]<<KM) was calculated by fitting the data according to the equation for a competitive “tight-binding” inhibitor using SigmaPlot2000.

[3] = system: glioblastoma cells; conditions: Misra et al. 1982; cited from earlier work
[4] = molecular target: hPin1 (Homo sapiens, UniProt Q13526); assay: protease-coupled PPIase assay, hPin1; format: biochemical
Sequence of hPin1 (Q13526 whole entry): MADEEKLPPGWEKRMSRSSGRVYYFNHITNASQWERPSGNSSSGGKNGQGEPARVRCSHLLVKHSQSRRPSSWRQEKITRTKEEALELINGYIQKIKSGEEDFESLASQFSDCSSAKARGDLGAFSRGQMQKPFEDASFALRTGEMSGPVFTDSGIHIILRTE
Method: PPIase activity measurements were performed by the protease-coupled PPIase assay developed by Fischer et al. (1984). For hPin1 activity measurements, bovine trypsin (final concentration 0.21 mg/mL, Sigma) was used as an isomer-specific protease and Ac-Ala-Ala-Ser(P)-Pro-Arg-pNA (Jerini, Germany) as a substrate. PPIase activity of hFKBP12 (Sigma) and hCyp18 (Sigma) was determined with the peptide substrate Suc-Ala-Phe-Pro-Phe-pNA (Bachem) and the protease α-chymotrypsin (final concentration 0.41 mg/mL, Sigma). The test was performed by observing the released 4-nitroanilide at 390 nm with a Hewlett-Packard 8453 UV-vis spectrophotometer at 10° C. The total reaction volume was adjusted to 1.23 mL by mixing appropriate volumes of 35 mM HEPES (pH 7.8) with enzyme and effector solutions. Fredericamycin A (BioLeads, Germany) was freshly diluted from a 1 mg/mL stock solution in DMSO. If not otherwise indicated, fredericamycin A (0-6 μM) was pre-incubated with the enzyme for 5 min (10° C.). Prior to the start of reaction by addition of the respective protease, 2 μL of the peptide substrate stock solution (10 mg/mL in DMSO) were added. The amount of organic solvent was kept constant within each experiment (<0.1%). The pseudo-first-order rate constant kobs for cis/trans isomerization in the presence of PPlase and the first-order rate constant k0 of the unkatalyzed cis/trans isomerization were calculated using the Kinetics Software of Hewlett-Packard as well as SigmaPlot2000 for Windows 6.0 (SPSS). The Ki value for inhibition of hPin1 PPIase activity by fredericamycin A at constant concentrations of substrate ([S0]<<KM) was calculated by fitting the data according to the equation for a competitive “tight-binding” inhibitor using SigmaPlot2000.
FIG. 1: Ki value for hPin1 PPlase activity inhibition by fredericamycin A. PPIase activity measurements were performed as described in Materials and Methods. 6.0 nM of Pin1 were pre-incubated with 0-4.8 μM fredericamycin A in 35 mM HEPES (pH 7.8) at […] for 5 min. Ac-Ala-Ala-Ser(P)-Pro-Arg-pNA (21.9 μM) was used as a substrate. Reactions were started by addition of trypsin.
FIG. 2: Time dependency of Pin1 PPIase activity inhibition by fredericamycin A. PPIase activity measurements were performed as described in Materials and Methods. 6.0 nM hPin1 was incubated for 0, 5, 10, 15, 20, 25 and 30 min with 0 (●) and 1 μM (♦) fredericamycin, respectively.
FIG. 3: Reversibility of the interaction between hPin1 and fredericamycin A. 209 nM of hPin1 were incubated with 0 (▪) and 0.16 (□) […] fredericamycin A and the remaining PPIase activity of hPin1 was measured before and after micro-separation through a semipermeable membrane using the protease-coupled PPlase assay according to Materials and Methods.

[5] = molecular target: T2, hFKBP12 (Homo sapiens, UniProt P62942); assay: protease-coupled PPIase assay, hFKBP12; format: biochemical
T2 construct: purchased Sigma
T2 sequence (P62942 whole entry): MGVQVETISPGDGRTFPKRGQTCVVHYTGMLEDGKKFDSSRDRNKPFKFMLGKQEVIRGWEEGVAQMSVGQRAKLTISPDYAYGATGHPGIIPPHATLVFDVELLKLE
Method: as §1

[6] = Day 7 (before dosing), group 0.34 mg/kg ip Days 16-20
[7] = Day 12 (before dosing), group 0.34 mg/kg ip Days 16-20
[8] = Day 18, 0.34 mg/kg ip Days 16-20
[9] = Day 25, 0.34 mg/kg ip Days 16-20
[10] = Day 32, 0.34 mg/kg ip Days 16-20
[11] = Day 14 (before dosing), group 0.34 mg/kg ip Days 16-20
[12] = Day 21, 0.34 mg/kg ip Days 16-20
[13] = Day 28, 0.34 mg/kg ip Days 16-20

O=C1c2c(O)ccc(O)c2C(=O)c2c(NCCNCCO)ccc(NCCNCCO)c21 [Mitox, reference compound]
mice that died after 32 days (0.34 mg/kg ip Days 16-20, ten mice per group): None
Mean Mouse Weight [6]: 27.98 g
Mean Mouse Weight [7]: 28.32 g
Mean Mouse Weight [8]: 27.39 g
Mean Mouse Weight [9]: 27.38 g
Mean Mouse Weight [10]: 28.04 g
Mean Mouse Weight (Day −6 (before dosing), group 0.34 mg/kg ip Days 16-20): 26.36 g
Tumor Volume [1, 6]: 0.02 cm^3
Tumor Volume [1, 7]: 0.05 cm^3
Tumor Volume [1, 11]: 0.09 cm^3
Tumor Volume [1, 8]: 0.19 cm^3
Tumor Volume [1, 12]: 0.22 cm^3
Tumor Volume [1, 9]: 0.37 cm^3
Tumor Volume [1, 13]: 0.53 cm^3
Tumor Volume [1, 10]: 0.72 cm^3

C/C=C/C=C/c1cc2cc3c(c(O)c2c(=O)[nH]1)C1(CC3)C(=O)c2c(O)c3c(c(O)c2C1=O)C(=O)C(OC)=CC3=O (stereo not drawn) [fredericamycin A]
IC50 [2]: 5.1 ± 2 µM
death of mice (0.67 mg/kg ip from Day 16, ten mice per group): All of the mice receiving 0.67 mg/kg of Fred A died by about Day 17
number of mice that lived until Day 32 (mouse, in vivo): 2
anti-tumor activity against glioblastoma cells [3]: comparable to 1,3-bis(2-chloroethyl)-1-nitrosourea (BCNU)
Tumor Volume [1, 6]: 0.02 cm^3
Tumor Volume ([1]; Day 7 (before dosing), group 0.67 mg/kg ip Days 16-20): 0.04 cm^3
Tumor Volume [1, 7]: 0.05 cm^3
Tumor Volume ([1]; Day 12 (before dosing), group 0.67 mg/kg ip Days 16-20): 0.04 cm^3
Tumor Volume [1, 11]: 0.05 cm^3
Tumor Volume ([1]; Day 14 (before dosing), group 0.67 mg/kg ip Days 16-20): 0.07 cm^3
Tumor Volume [1, 8]: 0.03 cm^3
Tumor Volume ([1]; Day 18, 0.67 mg/kg ip Days 16-20): 0.05 cm^3
Tumor Volume [1, 12]: 0.11 cm^3
Tumor Volume [1, 9]: 0.11 cm^3
Tumor Volume [1, 13]: 0.22 cm^3
Tumor Volume [1, 10]: 0.35 cm^3
reduction of mean tumor volume as compared to the DMSO or Mitox controls ([1]; FIG. 4, DU-145 tumor bearing scid mice, ip Days 16-20): 50%
Ki ([4]; 6.0 nM Pin1, 5 min pre-incubation, 35 mM HEPES pH 7.8, substrate Ac-Ala-Ala-Ser(P)-Pro-Arg-pNA, competitive tight-binding fit, read-out: Ki value for inhibition of the PPIase activity of hPin1): 0.82 ± 0.608 µM
time dependency of inhibition of hPin1 PPIase activity ([4]; 6.0 nM hPin1, 1 μM inhibitor, 0-30 min incubation): no time dependency of inhibition within 30 min
remaining hPin1 PPIase activity ([4]; 209 nM hPin1, 0.16 mM inhibitor, before micro-concentration): 23%
hPin1 reactivation after micro-concentration through semi-permeable membrane (reversibility) ([4]; 209 nM hPin1, 0.16 mM inhibitor, buffer replaced 3 times, compared to inhibitor-free enzyme control): 97.5%
preference for the parvulin hPin1 over the other tested PPIases ([4]; hPin1 versus hCyp18 and hFKBP12): 6- to 7 fold
IC50 ([4]; protease-coupled PPIase assay): 0.89 ± 0.05 µM
IC50 [5]: 6.2 ± 1.7 µM
